Test results published in US20080138284A1, “Novel Peptides That Promote Lipid Efflux” (Lipid Sciences, Inc., priority 2006, published 2008).
Ends that are not written are not given here.

How the values were obtained:
[1] = tested on: atherosclerotic coronary artery; test: Coronary atherosclerosis by IVUS in individuals with acute coronary syndrome; type: in vivo, human; conditions: iv weekly for 5 to 8 weeks, on stable hypolipidemic drug therapy
Source text: Individuals with acute coronary syndrome and documented atherosclerosis have a cardiac catherization with intravascular ultrasound (IVUS) to document coronary atherosclerosis of 20 to 50% obstruction in the target artery. Each individual is on stable hypolipidemic drug therapy and receives an acceptable dose of a peptide of the present invention and/or an associated fragment iv weekly for a period of 5 to 8 weeks. A repeat IVUS measurement is made at the end of the treatment period to assess the effect of the peptide infusion on coronary atherosclerosis in the target vessel.

[2] = tested on: FU5AH rat hepatoma cells (SR-B1); test: SR-B1 mediated cholesterol efflux; type: cell-based; conditions: peptide samples run at 30 μg/ml
Source text: The methods employed in this study have been described in U.S. Pat. Nos. 7,029,863, 7,060,452, U.S. Patent Application Publication No. 2005/0191715, and in Moya et al., Arteriosclerosis & Thrombosis 1994:14:1056-1065 and Liu et al., J. Biol. Chem., 2003:278(44), 42976-42984. SR-B1 mediated cholesterol efflux is examined in FU5AH rat hepatoma cells and ABCA1 mediated cholesterol efflux is examined in J774 mouse macrophage cells as described in these references.

[3] = tested on: CD11b; test: CD11b expression in stimulated monocytes by flow cytometry; type: cell-based; conditions: human monocytes, 1 μmol/L PMA, 20 μg/ml apoA-1 or peptide
Method: Monocyte Isolation Peripheral whole blood (PWB) is drawn from healthy consenting individuals into syringes containing sodium citrate (final concentration—19.2 mM). Resting human monocytes are isolated from PWB by density centrifugation with Lymphoprep (Axis Shield). Mononuclear cells (MNCs) are collected and monocytes are further separated to purity using the Dynal negative isolation kit (Invitrogen). Monocytes are resuspended in phosphate buffered saline (PBS) and cell number is determined counting cell suspension on an automated hematology analyzer (Sysmex, KX-21N, USA). Purification of HDL and apoA-1 Human plasma apoA-1 is isolated as previously described and the purity determined using total mass spectrometry. Flow Cytometry 100 μL of monocytes are stimulated with either 1 μmol/L phorbol-myristate-acetate (PMA) or 1 μg/ml lipopolysaccharide (LPS) (Sigma, Australia) in the presence or absence of apoA-1 (20 μg/ml), or 20 μg/ml of the test peptides of the present invention. SEQ ID NOs: 72, 80, 89, 354, 355 and 372 are also tested individually. The cells are incubated with the FITC conjugated antibody to either the active epitope of CD11b (eBiosciences, USA, Clone CBRM1/5) or total CD11b (Serotec, USA, Clone ICRF44) for 15 min at 37° C. Cells are then fixed with 4% paraformaldehyde. Samples are controlled for by using the appropriately matched isotype matched negative control (FITC-anti-mouse IgG) (Serotec, USA, Clone W3/25). CD11b expression is measured by flow cytometry using FACS Calibur (Becton Dickinson). Analysis is conducted using the Cell Quest Pro software. Statistical Analysis Values are presented as the mean ±SD or percentage of control ±SD. FACS results are analyzed for statistical significance using one-way ANOVA followed by Bonferroni post-hoc test. Significance is accepted at P<0.05. […] The combined effects of increasing cholesterol efflux and decreasing inflammation indicate that the peptides of the present invention effectively mimic the function of Apo AI and will decrease atherosclerosis.

[4] = tested on: apoE knockout and LDL-receptor knockout mice; test: Aortic atherosclerosis after ip peptide injection in ApoE knockout and LDL receptor knockout mice; type: in vivo, mouse; conditions: 30 mg/kg ip three times per week, 4-5 or 8-10 weeks; 'proposed studies'
Method: ApoE knockout and LDL receptor knockout mice, two well established animal models for the study of atherosclerosis, are injected with either saline as control or the synthetic peptides of the present invention to ascertain if these peptides can be used to increase HDL and decrease atherosclerosis.
The mice receive 3 injections per week for either […] or 8-10 weeks. After the completion of the injection, the amount of hardening of the arteries or atherosclerosis is determined in the control injected animals and peptide injected animals to determine if the injections of the synthetic peptide decreased development of atherosclerosis.
The proposed studies test if intraperitoneal infusions of the apoA-I mimetic peptides of the present invention result in decreased aortic atherosclerosis in apoE and LDL receptor knockout mice, two well established mouse models of atherosclerosis.
Four to six week old C57B1/6 mice, apoE knockout (JAX 2052) and LDL-receptor knockout (JAX 2207) mice, all in the C57B1/6 background, are obtained from Jackson Laboratories. During the entire study, C57B1/6 and apoE knockout mice are maintained on a regular chow diet (0.02% cholesterol, 3% fat) and LDL-receptor mice are maintained on a Western diet (TD88137; Harlan Teklad; Madison, Wis. —containing 0.20% cholesterol and 21% fat).
In the first study (Infusion Study A), C57B1/6 mice as well as apoE knockout and LDL receptor knockout mice are injected by the intraperitoneal (ip) route or intravenous (iv) route with synthetic peptides of the present invention mimetic (30 mg/kg) on up to four different occasions two weeks apart. To evaluate changes in the plasma lipid and lipoprotein profile associated with injection of the synthetic peptide, blood for lipid analyses is obtained before and at 2, 4, 6, 24 and 48 hours after peptide injection. At the end of the study the animals are sacrificed.
For infusion studies B and C, mice are injected ip with either placebo or a synthetic peptide of the present invention (30 mg/kg) three times per week for either 4 to 5 weeks (Infusion Study B) or 8 to 10 weeks (Infusion Study C). Blood for lipid and lipoprotein analyses is obtained at the beginning of the study (day 0) and every two weeks after placebo/peptide injection and at the completion of the study. At the completion of the study (4 to 5 weeks for Infusion Study B and 8 to 10 weeks for Infusion Study C), the animals are sacrificed, organs harvested for analyses of cholesterol content and for aortic atherosclerosis.
For Infusion Study A, 5 four to six week old C57B1/6, apoE knockout (JAX 2052) and LDL receptor knockout (JAX 2207) control mice receive ip or iv injections of the synthetic peptide of the present invention for up to four times two weeks apart. The sequence of procedures for this study is as follows: • 1) Mice are first anaesthetized by using 1-3% isoflurane by inhalation prior to each ip injection to insure appropriate and complete delivery of placebo/peptide. • 2) Mice are injected with either placebo (0.2 ml saline) or apoA-I synthetic peptide (30 mg/kg in 0.2 ml saline) via either the intraperitoneal or intravenous route. • 3) In order to evaluate changes in the plasma lipids and lipoproteins in the time-frame between injections, each mouse in this study group is bled from the retro-orbital sinus following administration of a topical anesthesia. before and at 2, 4, 6, 24 and 48 hours after the peptide injection. No more than 300 ul blood is drawn during this 48 hour period. • 4) At the end of infusion study A all mice are sacrificed by using Avertin (2.5%, 0.011 ml/gm, ip) or ketamine (80 ug/gm, ip). […]

Substance | plaque in the atherosclerotic coronary artery (IVUS) [1] | effect on cholesterol efflux from the Fu5AH cells (SRB1 pathway) [2] | PMA induced CD11b expression [3] | aortic atherosclerosis compared to controls [4]
LESAKVSALSALEEATKKAKPVLLESFKVSFLSALEEYTKK [SEQ ID NO:89] | reduce plaque in the atherosclerotic coronary artery | negligible or no effect | significantly reduce PMA induced CD11b expression | decrease aortic atherosclerosis compared to controls
Ac-Leu Glu Ser Ala Lys Val Ser Ala Leu Ser Ala Leu Glu Glu Ala Thr Lys Lys Ala Lys Pro Val Leu Leu Glu Ser Phe Lys Val Ser Phe Leu Ser Ala Leu Glu Glu Tyr Thr Lys Lys-NH2 (Ac-LESAKVSALSALEEATKKAKPVLLESFKVSFLSALEEYTKK-NH2) [SEQ ID NO:372] | reduce plaque in the atherosclerotic coronary artery | negligible or no effect | significantly reduce PMA induced CD11b expression | decrease aortic atherosclerosis compared to controls
Ac-Ser Asp Glu Leu Arg Gln Arg Leu Ala Ala Arg Leu Glu Ala Leu Lys Glu Asn Ala Lys Pro Val Leu Leu Glu Ser Phe Lys Val Ser Phe Leu Ser Ala Leu Glu Glu Tyr Thr Lys Lys-NH2 (Ac-SDELRQRLAARLEALKENAKPVLLESFKVSFLSALEEYTKK-NH2) [SEQ ID NO:355] | reduce plaque in the atherosclerotic coronary artery | negligible or no effect | significantly reduce PMA induced CD11b expression | decrease aortic atherosclerosis compared to controls
SDELRQRLAARLEALKENAKPVLLESFKVSFLSALEEYTKK [SEQ ID NO:80] | reduce plaque in the atherosclerotic coronary artery | negligible or no effect | significantly reduce PMA induced CD11b expression | decrease aortic atherosclerosis compared to controls
GEEMRDRARAHVDALRTHAKPVLLESFKVSFLSALEEYTKK [SEQ ID NO:72] | reduce plaque in the atherosclerotic coronary artery | negligible or no effect | significantly reduce PMA induced CD11b expression | decrease aortic atherosclerosis compared to controls
Ac-Gly Glu Glu Met Arg Asp Arg Ala Arg Ala His Val Asp Ala Leu Arg Thr His Ala Lys Pro Val Leu Leu Glu Ser Phe Lys Val Ser Phe Leu Ser Ala Leu Glu Glu Tyr Thr Lys Lys-NH2 (Ac-GEEMRDRARAHVDALRTHAKPVLLESFKVSFLSALEEYTKK-NH2) [SEQ ID NO:354] | reduce plaque in the atherosclerotic coronary artery | negligible or no effect | significantly reduce PMA induced CD11b expression | decrease aortic atherosclerosis compared to controls
